The results in this text go back to PubChem BioAssay (NCI).

Each structure is given as a SMILES string.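 Briefly, cells in 96-well plates were exposed to five compound concentrations for 48 h, and endpoints were estimated by linear interpolation. GI50 is the concentration that inhibits growth by half. TGI marks complete inhibition of growth.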

Among the test systems are M14 melanoma; COLO 205 colon; RXF 393 renal; K-562 leukemia; SNB-75 CNS; NCI/ADR-RES ovarian; SK-MEL-28 melanoma; UACC-62 melanoma; HOP-92 NSCLC; TK-10 renal.
What all share (assay): DTP human tumour cell line panel, 48 h

For the compound `CC(=O)[C@]1(C)[C@H](C)O[C@](C)(CO)[C@H]1O[Si](C)(C)c1ccccc1`, the TGI (in general, the concentration giving total growth inhibition) in the test with M14 melanoma was over 100 µM; in the test on COLO 205 colon, over 100 µM; with RXF 393 renal, 46 µM; with K-562 leukemia, over 100 µM; in the test on SNB-75 CNS it was over 100 µM; with NCI/ADR-RES ovarian, over 100 µM. Further, the TGI in the test on SK-MEL-28 melanoma, in the test with UACC-62 melanoma, with HOP-92 NSCLC and in the test with TK-10 renal was over 100 µM each time.

Regarding `CCN(CC)c1nc(=O)c(C(=O)C(C)(C)C)c(C(C)(C)C)o1`, the TGI in the test with M14 melanoma, in the test on COLO 205 colon, in the test on RXF 393 renal, in the test on K-562 leukemia, in the test with SNB-75 CNS and in the test with NCI/ADR-RES ovarian was over 100 µM each time. Also, the concentration for total growth inhibition (TGI) in the test on SK-MEL-28 melanoma, in the test on UACC-62 melanoma, in the test on HOP-92 NSCLC and in the test on TK-10 renal was over 100 µM each time.

Consider `O=c1[nH]cnc2c1ncn2C1SC(CO)C(O)C1O` (stereo not given), for which the TGI in the test on M14 melanoma, in the test on COLO 205 colon, with RXF 393 renal, with K-562 leukemia, in the test on SNB-75 CNS and with NCI/ADR-RES ovarian was over 100 µM throughout. In addition, the TGI with SK-MEL-28 melanoma, in the test with UACC-62 melanoma, in the test with HOP-92 NSCLC and in the test with TK-10 renal was over 100 µM in each case.

With `Nc1ccc(-c2nc3ccccc3s2)cc1I`, the TGI with M14 melanoma was over 100 µM; with COLO 205 colon, over 100 µM; in the test with RXF 393 renal, over 100 µM; in the test on K-562 leukemia it was over 100 µM; with SNB-75 CNS, 99.4 µM; in the test on NCI/ADR-RES ovarian, over 100 µM. The TGI was over 100 µM in the test on SK-MEL-28 melanoma, over 100 µM in the test with UACC-62 melanoma, over 54.5 µM in the test with HOP-92 NSCLC and over 100 µM in the test with TK-10 renal.

For the compound `Cc1cn(C2CC(N=[N+]=[N-])C(CO)O2)c(=O)n(CCCCO)c1=O` (stereo not given), the TGI with M14 melanoma, in the test on COLO 205 colon, in the test with RXF 393 renal, in the test on K-562 leukemia, with SNB-75 CNS and in the test on NCI/ADR-RES ovarian was over 100 µM each time. The TGI in the test with SK-MEL-28 melanoma, in the test on UACC-62 melanoma, in the test on HOP-92 NSCLC and in the test on TK-10 renal was over 100 µM throughout.

Take `ClCCCC1COc2ccccc2O1` (stereo not given): the TGI in the test on M14 melanoma, with COLO 205 colon, in the test with RXF 393 renal, with K-562 leukemia, in the test with SNB-75 CNS and in the test with NCI/ADR-RES ovarian was over 100 µM in each case. Besides, the total growth inhibition concentration (TGI) in the test with SK-MEL-28 melanoma, with UACC-62 melanoma, in the test with HOP-92 NSCLC and in the test with TK-10 renal was over 100 µM throughout.

With `NS(=O)(=O)c1ccc(N=Nc2nc3[nH]cnc(=S)c3[nH]2)cc1`, the TGI in the test on M14 melanoma is over 32.6 µM; in the test with COLO 205 colon, 7.09 µM; in the test with RXF 393 renal, over 22.1 µM; in the test with K-562 leukemia, over 53.1 µM; in the test on SNB-75 CNS, over 100 µM; in the test with NCI/ADR-RES ovarian, 14.5 µM. Moreover, the TGI in the test with SK-MEL-28 melanoma was over 100 µM; in the test with UACC-62 melanoma, 8.72 µM; in the test with HOP-92 NSCLC it was over 100 µM; in the test on TK-10 renal, 19.3 µM.

For `CCN(CC)CCNc1ccc2ncn3c4c(OC)ccc(=O)c4c(O)c1c23`, the total growth inhibition concentration (TGI) with M14 melanoma was over 100 µM; in the test on COLO 205 colon, over 100 µM; in the test on RXF 393 renal it was 34.1 µM; with K-562 leukemia, over 100 µM; with SNB-75 CNS, over 100 µM; in the test with NCI/ADR-RES ovarian it was over 50.9 µM. Moreover, the TGI in the test with SK-MEL-28 melanoma was 27.1 µM; in the test with UACC-62 melanoma it was over 100 µM; with HOP-92 NSCLC it was over 62.1 µM; in the test on TK-10 renal, over 100 µM.

Regarding `CCCCC1=CC1(C#N)[N+](=O)[O-]` (stereo not given), the TGI in the test with M14 melanoma is over 100 µM; in the test on COLO 205 colon, over 100 µM; in the test on RXF 393 renal, over 100 µM; in the test with K-562 leukemia, 66.6 µM; in the test with SNB-75 CNS, over 100 µM; in the test with NCI/ADR-RES ovarian, over 100 µM. For the same compound, the TGI with SK-MEL-28 melanoma, with UACC-62 melanoma, with HOP-92 NSCLC and in the test with TK-10 renal was over 100 µM each time.

Regarding `CCN(CC)CCOCC1CCCN2CCCCC12` (stereo not given), the TGI with M14 melanoma, with COLO 205 colon, in the test with RXF 393 renal, with K-562 leukemia, with SNB-75 CNS and in the test on NCI/ADR-RES ovarian was over 100 µM each time. Moreover, the TGI in the test on SK-MEL-28 melanoma, in the test with UACC-62 melanoma, in the test with HOP-92 NSCLC and in the test on TK-10 renal was over 100 µM each time.

Regarding `CN(C)C=Nc1c(Br)cc(Br)c2nonc12`, the TGI in the test on M14 melanoma, in the test on COLO 205 colon, in the test with RXF 393 renal, with K-562 leukemia, in the test with SNB-75 CNS and in the test on NCI/ADR-RES ovarian was over 100 µM in each case. Moreover, the TGI with SK-MEL-28 melanoma, in the test with UACC-62 melanoma, in the test on HOP-92 NSCLC and with TK-10 renal was over 100 µM throughout.

For `c1ccc(C2=NN[C@H](c3cn(-c4ccccc4)nc3-c3ccccc3)C2)cc1`, the GI50 (usually the concentration at which growth is held to half of that of the control) in the test on M14 melanoma was 6.46 µM; with COLO 205 colon, 6.55 µM; in the test with RXF 393 renal it was 2.58 µM; with K-562 leukemia, over 100 µM; in the test with SNB-75 CNS, 2.05 µM; with NCI/ADR-RES ovarian it was 3.98 µM. Moreover, the GI50 with SK-MEL-28 melanoma was 4.89 µM; in the test on UACC-62 melanoma, 6.61 µM; with HOP-92 NSCLC, 2.72 µM; with TK-10 renal, 2.82 µM. Also, the TGI is over 100 µM with M14 melanoma; over 100 µM with COLO 205 colon; 9.85 µM with RXF 393 renal; over 100 µM in the test with K-562 leukemia; 4.19 µM in the test on SNB-75 CNS; over 100 µM in the test with NCI/ADR-RES ovarian. In addition, the TGI with SK-MEL-28 melanoma is over 100 µM; in the test with UACC-62 melanoma, over 100 µM; in the test with HOP-92 NSCLC, 8.07 µM; with TK-10 renal, 7.74 µM.

Regarding `O=C(Nn1c(-c2ccccc2)nc2ccccc2c1=O)c1ccc(O)cc1`, the TGI in the test with M14 melanoma, in the test on COLO 205 colon, in the test on RXF 393 renal, in the test on K-562 leukemia, in the test on SNB-75 CNS and in the test on NCI/ADR-RES ovarian was over 100 µM in each case. The TGI in the test with SK-MEL-28 melanoma, with UACC-62 melanoma, with HOP-92 NSCLC and with TK-10 renal was over 100 µM in each case.

Turning to `CCCCCCCCCCCCCCCCNc1ccc2c(c1)OCCOCCOCCOCCO2`, the TGI with M14 melanoma amounted to 13.5 µM; in the test on COLO 205 colon, 3.18 µM; with RXF 393 renal it was 5.58 µM; in the test with K-562 leukemia it was 10.7 µM; with SNB-75 CNS, 11.9 µM; with NCI/ADR-RES ovarian, 6.4 µM. In addition, the TGI was found to be 18.8 µM with SK-MEL-28 melanoma, 11.1 µM in the test on UACC-62 melanoma, 5.99 µM with HOP-92 NSCLC and 25.7 µM in the test with TK-10 renal.

Turning to `Cc1ccc(C(=O)c2[nH]c(Nc3ccc(Cl)cc3)c(C(=S)Nc3ccccc3)c2N)cc1`, the TGI in the test with M14 melanoma is 35.8 µM; with COLO 205 colon it was 2.84 µM; in the test on RXF 393 renal it was 17.4 µM; in the test with K-562 leukemia, 24 µM; in the test on SNB-75 CNS it was 7.14 µM; in the test on NCI/ADR-RES ovarian, 17.1 µM. In addition, the TGI with SK-MEL-28 melanoma worked out at 14.5 µM; in the test with UACC-62 melanoma it was 28.1 µM; in the test with HOP-92 NSCLC, 28 µM; with TK-10 renal, 16.8 µM.

In the case of `COC(=O)CCSC1=CC(=O)c2nc3ccccc3c3ccnc1c23`, the TGI with M14 melanoma is 47.2 µM; in the test with COLO 205 colon it was over 47 µM; with RXF 393 renal, 37.1 µM; in the test on K-562 leukemia, over 42 µM; in the test with SNB-75 CNS, over 100 µM; with NCI/ADR-RES ovarian, 46.6 µM. Moreover, the total growth inhibition concentration (TGI) with SK-MEL-28 melanoma was 45.9 µM; with UACC-62 melanoma it was 21.7 µM; with HOP-92 NSCLC, over 55.4 µM; with TK-10 renal, 18.9 µM.

For `Nc1nc(Sc2ccc([N+](=O)[O-])cn2)c2[nH]cnc2n1`, the total growth inhibition concentration (TGI) is 24.1 µM in the test with M14 melanoma; 39 µM in the test with COLO 205 colon; over 30.4 µM in the test on RXF 393 renal; over 100 µM in the test with K-562 leukemia; 63.9 µM in the test on SNB-75 CNS; 30.3 µM in the test with NCI/ADR-RES ovarian. Also, the TGI in the test with SK-MEL-28 melanoma is over 100 µM; in the test on UACC-62 melanoma, 11.6 µM; with HOP-92 NSCLC, 38.7 µM; in the test on TK-10 renal, over 100 µM.
